The experiment concerns HEK293T cells carrying the ATF4 luciferase reporter. In words: ATF4-Luc assay (in vitro model of vanishing white matter disease). The note with it: Homo sapiens, HEK-293T, 1 μg/mL tunicamycin, 7 hours. The format is cell-based. Summed up: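 Stable HEK293T line expressing firefly luciferase behind the human full-length ATF4 5′-UTR, grown in DMEM/10% FBS. Cells were co-treated with 1 μg/mL tunicamycin and 200 nM compound for 7 h. Luciferase luminescence was read as the output, and EC50 values were derived from it.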
Regarding `O=C(COc1ccc(Cl)c(F)c1)NC12CCC(C(=O)Nc3ccc(Cl)cc3)(C1)C2` [Compound 286, 4-[2-(4-chloro-3-fluorophenoxy)acetamido]-N-(4-chlorophenyl)bicyclo[2.1.1]hexane-1-carboxamide], the EC50 was more than 2 µM.
As to `NC(=O)CN(Cc1ccc(Cl)c(F)c1)C(=O)C12CCC(NC(=O)COc3ccc(Cl)c(F)c3)(CC1)CC2` [Compound 320, N-(2-amino-2-oxoethyl)-4-[2-(4-chloro-3-fluorophenoxy)acetamido]-N-[(4-chloro-3-fluorophenyl)methyl]bicyclo[2.2.2]octane-1-carboxamide], the EC50 lay within 0.5 to 1 µM.
For `O=C(COc1ccc(Cl)c(F)c1)NC12CCC(C(=O)NCc3ccc(C(F)(F)F)cn3)(CC1)C(=O)N2` [Compound 333, 1-[2-(4-chloro-3-fluorophenoxy)acetamido]-3-oxo-N-{[5-(trifluoromethyl)pyridin-2-yl]methyl}-2-azabicyclo[2.2.2]octane-4-carboxamide], the EC50 was less than 0.25 µM.
On to `O=C(COc1ccc(Cl)c(F)c1)NC12CC(C(=O)Nc3ccc(OC(F)F)nc3)(C1)C2` [Compound 282, 3-[2-(4-chloro-3-fluorophenoxy)acetamido]-N-[6-(difluoromethoxy)pyridin-3-yl]bicyclo[1.1.1]pentane-1-carboxamide], for which the EC50 was less than 0.25 µM.
As to `O=C(COc1ccc(Cl)c(F)c1)NC12CCC(C(=O)Nc3ccc(OC(F)(F)F)nc3)(CC1)OC2` [Compound 341, 4-[2-(4-chloro-3-fluorophenoxy)acetamido]-N-[6-(trifluoromethoxy)pyridin-3-yl]-2-oxabicyclo[2.2.2]octane-1-carboxamide], the EC50 was less than 0.25 µM.
Consider `Cc1cnc(NC(=O)C23CC(NC(=O)COc4ccc(Cl)c(F)c4)(C2)C3)cn1` [Compound 304, 3-[2-(4-chloro-3-fluorophenoxy)acetamido]-N-(5-methylpyrazin-2-yl)bicyclo[1.1.1]pentane-1-carboxamide], for which the EC50 is less than 0.25 µM.
For `O=C(COc1ccc(Cl)c(F)c1)NC12CCC(C(=O)Nc3ccc(OC(F)(F)F)cc3)(CC1)OC2` [Compound 336, 4-[2-(4-chloro-3-fluorophenoxy)acetamido]-N-[4-(trifluoromethoxy)phenyl]-2-oxabicyclo[2.2.2]octane-1-carboxamide], the EC50 was less than 0.25 µM.
`O=C(COc1ccc(Cl)c(F)c1)NC12CC(C(=O)Nc3ccc(Cl)cc3)(C1)C2` [Compound 283, 3-[2-(4-chloro-3-fluorophenoxy)acetamido]-N-(4-chlorophenyl)bicyclo[1.1.1]pentane-1-carboxamide]: the EC50 is less than 0.25 µM.
With `O=C(COc1ccc(Cl)c(F)c1)NC12CCC(C(=O)NCc3ccc(Cl)cn3)(CC1)CC2` [Compound 257, 4-[2-(4-chloro-3-fluorophenoxy)acetamido]-N-[(5-chloropyridin-2-yl)methyl]bicyclo[2.2.2]octane-1-carboxamide], the EC50 is less than 0.25 µM.

The EC50 is the midpoint of the concentration-response curve.

The record behind these values is patent publication US20240173307A1, “MODULATORS OF THE INTEGRATED STRESS PATHWAY” (Calico Life Sciences LLC, priority 2017, published 2024).
